Experimental data as given in BigSolDB 2.1.

O=P(c1ccccc1)(c1ccccc1)c1cc(O)ccc1O
Conditions	solubility (mole fraction)
in 2-ethoxyethanol, 299.43 K	0.0108
in 2-ethoxyethanol, 303.25 K	0.0113
in 2-ethoxyethanol, 308.24 K	0.0124
in 2-ethoxyethanol, 313.46 K	0.0137
in 2-ethoxyethanol, 318.15 K	0.0154
in 2-ethoxyethanol, 323.27 K	0.0168
in 2-ethoxyethanol, 328.26 K	0.018
in 2-ethoxyethanol, 333.45 K	0.0198
in 2-ethoxyethanol, 338.75 K	0.0223
in 2-ethoxyethanol, 343.15 K	0.0236
in 2-ethoxyethanol, 348.15 K	0.0252
in 2-ethoxyethanol, 353.14 K	0.0279
in 2-ethoxyethanol, 358.06 K	0.0295
in 2-ethoxyethanol, 363.15 K	0.0316
in 2-ethoxyethanol, 368.16 K	0.0348
in acetone, 299.45 K	0.00175
in acetone, 303.26 K	0.00188
in acetone, 308.24 K	0.00216
in acetone, 313.47 K	0.00236
in acetone, 318.13 K	0.00262
in acetone, 323.26 K	0.00296
in acetone, 328.25 K	0.00332
in ethanol, 293.95 K	0.00571
in ethanol, 298.26 K	0.00634
in ethanol, 303.44 K	0.00721
in ethanol, 308.26 K	0.00787
in ethanol, 313.45 K	0.00903
in ethanol, 318.47 K	0.00979
in ethanol, 323.35 K	0.0109
in ethanol, 328.43 K	0.0117
in ethanol, 333.35 K	0.0127
in methanol, 294.16 K	0.00625
in methanol, 298.35 K	0.00707
in methanol, 303.87 K	0.00814
in methanol, 308.85 K	0.00946
in methanol, 313.34 K	0.0108
in methanol, 318.15 K	0.0123
in methanol, 323.56 K	0.0138
in toluene, 293.96 K	0.00071
in toluene, 298.25 K	0.00075
in toluene, 303.47 K	0.00078
in toluene, 308.24 K	0.00082
in toluene, 313.45 K	0.00086
in toluene, 318.43 K	0.00089
in toluene, 323.38 K	0.00094
in toluene, 328.45 K	0.00099
in water, 297.16 K	0.00011
in water, 308.15 K	0.00012
in water, 313.34 K	0.00013
in water, 318.15 K	0.00014
in water, 323.47 K	0.00014
in water, 328.46 K	0.00015
in water, 333.25 K	0.00015
in water, 338.17 K	0.00016
in water, 343.25 K	0.00017
in water, 348.36 K	0.00017
in water, 353.14 K	0.00018
in water, 358.13 K	0.00018
in water, 363.27 K	0.00019
in water, 368.26 K	0.00019
